Patent publication US10030027B2, “Soluble guanylate cyclase stimulators” (MERCK SHARP & DOHME CORP., priority 2015, dated 2018)

Tests used:
sGC α1/β1 heterodimer = sGC α1/β1 heterodimer (Homo sapiens (Human), UniProt Q02108+Q02153); assay: Cell-based sGC functional assay (cyclic GMP assay for sGC activator: CASA assay); settings: CHO-K1/sGC cells; for Emax: CHO-K1, activity expressed as percentage of compound A (standard), read-out: % Activation; for EC50: inflection point, 4P fit, read-out: IP
Outline: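 CHO-K1 cells stably expressing human sGC α1/β1 were pre-incubated 30 min at 25° C with or without 1 μM DETA-NO, then exposed to compound for 1 hr at 37° C with 0.5 mM IBMX and 2.5% DMSO final. Intracellular cGMP was measured by HTRF, expressed as % of reference sGC-HDA maximum; inflection point and maximum fold induction came from 4-parameter fits.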

[1] = molecular target: human recombinant sGC enzyme (Homo sapiens (Human), UniProt Q02108+Q02153); assay: Size Exclusion Chromatography (SEC) competition binding assay using [3H] Ex-77B as the radioligand; settings: [3H] Ex-77B radioligand, 24 hours at 37° C.
Outline: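 Recombinant human sGC binding measured by competition against tritiated Ex-77B radioligand, with non-specific binding defined by 1 μM unlabeled Ex-77B.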

[2] = system: hypoxia-induced pulmonary hypertension rat; assay: Acute efficacy in hypoxia-induced pulmonary hypertension in rat following intratracheal administration; assay type: in vivo
Description: Acute Efficacy in Hypoxia-Induced Pulmonary Hypertension in Rat Following Intratracheal Administration Charles River Sprague-Dawley (CD) male rats weighing approximately 350 g were implanted with HD-S21 dual pressure telemetry transmitters (Data Sciences International (DSI)) into the pulmonary artery and femoral artery. This transmitter enables simultaneous measurement of both pulmonary and systemic hemodynamic parameters in the same animal. After a 7-10 day post-operative recovery period, animals were subjected to a normobaric hypoxic (10% oxygen) environment using a Higher Peak Mountain Air Generator (MAG-10) connected to a modified rodent cage via a fitted inlet port. Oxygen (at 10%), temperature, humidity, and CO2 were controlled within normal range and animals were maintained on a 12 hour light-dark cycle with ad libitum access to food and water. After two weeks exposure to 10% O2 hypoxic environment, systolic pulmonary arterial pressure readings increased from 25 mmHg to greater than 50 mmHg. Using a 48 hour baseline average, animals with readings between 50-110 mmHg (standard deviation of less than 10 mmHg) and minimal changes in systolic systemic blood pressure were enrolled for study. Animals were utilized for up to 2 studies per week for 4 weeks with a minimum of 2 days washout between doses of test agent. Compound or vehicle was administered intra-tracheally under light isoflurane anesthesia (5% in oxygen; flow rate 2.0 L/min for 3 minutes). Once anesthetized, rats were placed on an angled intubation stand in supine position and the trachea visualized using a small laryngoscope. Animals then received either 0.5 mL/kg of vehicle or 0.5 mL/kg vehicle containing compound intra-tracheally delivered via microsprayer by use of a Penn-Century Microsprayer® needle 3″ (Model IA-1B-GP) attached to a 1 mL high pressure syringe (Penn Century-Model B-SYR-PL1000) (Penn-Century, Philadelphia, Pa.). The Microsprayer® tip was inserted into the trachea up to the point at which the bend in the needle is close to the tip of the snout, which positions the tip of the Microsprayer® in front of the carina (bifurcation of trachea at the bronchi). After dose delivery the animal is placed on its back in the home cage for recovery. Hemodynamic measurements were continuously recorded and readings consolidated to hourly moving averages. Each animal received a vehicle on Day 1 followed by vehicle or test agent on Day 2. Change from vehicle baseline was calculated by subtracting the hourly Day 1 vehicle response from the hourly Day 2 response and treatment group data was expressed as mean±SEM. Decreases of systolic blood pressure (SBP) and systolic pulmonary arterial pressure (PAP) were measured at a particular IT dose (mpk milligrams per kilogram) for the following Example compounds.

[3] = system: Spontaneously hypertensive rats (SHR); assay: Acute efficacy in spontaneously hypertensive rats (SHR); assay type: in vivo, rat
Description: Acute Efficacy in Spontaneously Hypertensive Rats (SHR)
Spontaneously hypertensive rats (SHR, male, Charles River) were implanted with DSI TA11PA-C40 telemetry device (Data Sciences, Inc., St. Paul, Minn.) under isoflurane or ketamine/metomidine anesthesia. The telemetry unit catheter was inserted into the descending aorta via the femoral artery and the telemetry device was implanted subcutaneously in the left flank area. Animals were allowed to recover from surgery for 14 days before the start of any studies. Blood pressure, heart rate, and activity signals from conscious, freely moving rats were recorded continuously for 30 seconds every 10 minutes. On the day prior to administration of compound, a single oral dose of vehicle (10% transcutol/20% Cremophor/70% water) was administered to all animals to establish baseline control data. The blood pressure lowering efficacy of compound (PO) or vehicle was evaluated following a single oral gavage. Data were collected as hourly averages, and changes in blood pressure were calculated by subtracting control baseline data on an hourly basis. Animals were maintained on normal diet with a 12 hour light-dark cycle.
Maximum peak decreases of systolic blood pressure (SBP) in SHR at a particular P.O. dose (mpk milligrams per kilogram) for the following Example compounds are provided.

| Emax (sGC α1/β1 heterodimer) [%] | EC50 (sGC α1/β1 heterodimer) [nM] | Ki [1] [nM] | Structure (SMILES) | Category: decrease in SBP (at minimum decrease in PAP of ≥15 mmHg) ([2]; Dose IT 0.01 mpk) | Category: decrease in SBP (at minimum decrease in PAP of ≥15 mmHg) ([2]; Dose IT 0.03 mpk) | Category: decrease in SBP (at minimum decrease in PAP of ≥15 mmHg) ([2]; Dose IT 0.1 mpk) | Category: maximum peak decrease of systolic blood pressure (SBP) in SHR ([3]; Dose P.O. 3 mpk) | Category: maximum peak decrease of systolic blood pressure (SBP) in SHR ([3]; Dose P.O. 1 mpk) |
| --- | --- | --- | --- | --- | --- | --- | --- | --- |
| 126 | 183 | 0.067 | CC(C)(Cc1coc(C2(C)C(=O)Nc3nc(-c4nn(Cc5ccccc5F)c5cc(Cl)ccc45)nc(N)c32)n1)C(=O)O (stereo not shown) [Example 3A, 3-(2-{4-amino-2-[6-chloro-1-(2-fluorobenzyl)-1H-indazol-3-yl]-5-methyl-6-oxo-6,7-dihydro-5H-pyrrolo[2,3-d]pyrimidin-5-yl)oxazol-4-yl}-2,2-dimethyl-propanoic acid] | A (decrease in SBP 0-5 mmHg) | – | – | – | – |
| 99 | 537 | 0.304 | CC(C)(Cc1cccc(C2(C)C(=O)Nc3nc(-c4nn(CCC(F)(F)C(F)(F)F)c5ncccc45)nc(N)c32)c1)C(=O)O (stereo not shown) [Example 11B, 3-(3-{4-Amino-5-methyl-6-oxo-2-[1-(3,3,4,4,4-pentafluorobutyl)-1H-pyrazolo[3,4-b]pyridin-3-yl]-6,7-dihydro-5H-pyrrolo[2,3-d]pyrimidin-5-yl}phenyl)-2,2-dimethylpropanoic acid] | – | B (decrease in SBP 5-10 mmHg) | – | – | – |
| 81 | 2880 | 2.04 | CC1(c2cn(CCC(=O)O)nn2)C(=O)Nc2nc(-c3nn(CCC(F)(F)C(F)(F)F)c4ncccc34)nc(N)c21 (stereo not shown) [Example 12B, 3-(4-{4-amino-5-methyl-6-oxo-2-[1-(3,3,4,4,4-pentafluorobutyl)-1H-pyrazolo[3,4-b]pyridin-3-yl]-6,7-dihydro-5H-pyrrolo[2,3-d]pyrimidin-5-yl}-1H-1,2,3-triazol-1-yl)propanoic acid] | – | – | B (decrease in SBP 5-10 mmHg) | – | – |
| 116 | 485 | – | CC1(c2nc(CC(=O)O)co2)C(=O)Nc2nc(-c3nn(Cc4ccccc4F)c4cc(Cl)ccc34)nc(N)c21 (stereo not shown) [Example 51B, 2-(2-{4-amino-2-(6-chloro-1-(2-fluorobenzyl)-1H-indazol-3-yl)-5-methyl-6-oxo-6,7-dihydro-5H-pyrrolo[2,3-d]pyrimidin-5-yl}oxazol-4-yl)acetic acid] | A (decrease in SBP 0-5 mmHg) | – | – | – | – |
| 116 | 858 | 0.293 | Cc1ccc2c(-c3nc(N)c4c(n3)NC(=O)[C@@]4(C)c3ccc(CCC(=O)O)cc3)nn(Cc3ccccc3F)c2c1 [Example 59B, (S)-3-(4-{4-amino-2-[1-(2-fluorobenzyl)-6-methyl-1H-indazol-3-yl]-5-methyl-6-oxo-6,7-dihydro-5H-pyrrolo[2,3-d]pyrimidin-5-yl}phenyl)propanoic acid] | – | – | – | A (decrease in SBP in SHRs 5-25 mmHg) | – |
| 72 | 104 | – | CC(C)(Cc1coc(C2(C)C(=O)Nc3nc(-c4nn(Cc5ccccc5F)c5cc(F)ccc45)nc(N)c32)n1)C(=O)O (stereo not shown) [Example 63A, 3-(2-{4-amino-2-[6-fluoro-1-(2-fluorobenzyl)-1H-indazol-3-yl]-5-methyl-6-oxo-6,7-dihydro-5H-pyrrolo[2,3-d]pyrimidin-5-yl}oxazol-4-yl)-2,2-dimethylpropanoic acid] | A (decrease in SBP 0-5 mmHg) | – | – | – | – |
| 124 | 843 | 0.42 | CC(C)(CC(=O)O)c1csc([C@]2(C)C(=O)Nc3nc(-c4nn(CCC(F)(F)C(F)(F)F)c5ncccc45)nc(N)c32)n1 [Example 79B, (S)-3-(2-{4-amino-5-methyl-6-oxo-2-[1-(3,3,4,4,4-pentafluorobutyl)-1H-pyrazolo[3,4-b]pyridin-3-yl]-6,7-dihydro-5H-pyrrolo[2,3-d]pyrimidin-5-yl}-1,3-thiazol-4-yl)-3-methylbutanoic acid] | – | – | – | A (decrease in SBP in SHRs 5-25 mmHg) | – |
| – | – | – | C[C@@]1(c2nc(C3CC3C(=O)O)cs2)C(=O)Nc2nc(-c3nn(CCC(F)(F)C(F)(F)F)c4ncccc34)nc(N)c21 (stereo partly drawn) [Example 80BA, (5S)-2-(2-{-4-amino-5-methyl-6-oxo-2-[1-(3,3,4,4,4-pentafluorobutyl)-1H-pyrazolo[3,4-b]pyridin-3-yl]-6,7-dihydro-5H-pyrrolo[2,3-d]pyrimidin-5-yl}-1,3-thiazol-4-yl)cyclopropane-carboxylic acid] | – | – | B (decrease in SBP 5-10 mmHg) | – | – |
| 110 | 504 | – | C[C@@]1(c2nc(CC3(C(=O)O)CC3)cs2)C(=O)Nc2nc(-c3nn(CCC(F)(F)C(F)(F)F)c4ncccc34)nc(N)c21 [Example 81B, (S)-1-[(2-{4-amino-5-methyl-6-oxo-2-[1-(3,3,4,4,4-pentafluorobutyl)-1H-pyrazolo[3,4-b]pyridin-3-yl]-6,7-dihydro-5H-pyrrolo[2,3-d]pyrimidin-5-yl}-1,3-thiazol-4-yl)methyl]cyclopropane carboxylic acid] | – | B (decrease in SBP 5-10 mmHg) | – | – | – |
| 102 | 247 | 0.323 | CCCCn1nc(-c2nc(N)c3c(n2)NC(=O)C3(C)c2nc(CC(C)(C)C(=O)O)cs2)c2cccnc21 (stereo not shown) [Example 86A, 3-{2-[4-amino-2-(1-butyl-1H-pyrazolo[3,4-b]pyridin-3-yl)-5-methyl-6-oxo-6,7-dihydro-5H-pyrrolo[2,3-d]pyrimidin-5-yl]-1,3-thiazol-4-yl}-2,2-dimethylpropanoic acid] | – | – | – | – | A (decrease in SBP in SHRs 5-25 mmHg) |
| 108 | 442 | 0.343 | CC(C)(Cc1csc([C@]2(C)C(=O)Nc3nc(-c4nn(CCCC(F)(F)F)c5nc(Cl)ccc45)nc(N)c32)n1)C(=O)O [Example 89B, (S)-3-(2-{4-amino-2-[6-chloro-1-(4,4,4-trifluorobutyl)-1H-pyrazolo[3,4-b]pyridin-3-yl]-5-methyl-6-oxo-6,7-dihydro-5H-pyrrolo[2,3-d]pyrimidin-5-yl}-1,3-thiazol-4-yl)-2,2-dimethylpropanoic acid] | – | – | – | B (decrease in SBP in SHRs 25-40 mmHg) | – |
| 112 | 129 | 0.063 | CC(C)(Cc1csc([C@]2(C)C(=O)Nc3nc(-c4nn(Cc5ccccc5F)c5ncccc45)nc(N)c32)n1)C(=O)O [Example 90B, (S)-3-(2-{4-amino-2-[1-(2-fluorobenzyl)-1H-pyrazolo[3,4-b]pyridin-3-yl]-5-methyl-6-oxo-6,7-dihydro-5H-pyrrolo[2,3-d]pyrimidin-5-yl}-1,3-thiazol-4-yl)-2,2-dimethylpropanoic acid] | – | – | – | – | B (decrease in SBP in SHRs 25-40 mmHg) |
| 118 | 238 | 0.234 | Cc1cc(C2(C)C(=O)Nc3nc(-c4nn(CCC(F)(F)C(F)(F)F)c5cc(Cl)ccc45)nc(N)c32)ccc1CCC(=O)O (stereo not shown) [Example 121B, 3-(4-{4-Amino-2-[6-chloro-1-(3,3,4,4,4-pentafluorobutyl)-1H-indazol-3-yl]-5-methyl-6-oxo-6,7-dihydro-5H-pyrrolo[2,3-d]pyrimidin-5-yl}-2-methylphenyl)propanoic acid] | – | – | – | A (decrease in SBP in SHRs 5-25 mmHg) | – |
